{"source": "patent US8722043B2", "about": "“Induction of p53 expression by neutralization of neuropilin-2 for the treatment of cancers” (Diaclone, priority 2008, dated 2014)", "assay_type_in_all_cases": "cell-based, human", "key": {"[1]": {"system": "p53 protein", "assay": "p53 expression in Colo320 cells expressing siRNA-NRP-2 (flow cytometry, Western blotting)", "conditions": "Colo320^siRNA-NRP-2 versus Colo320^siRNA-ctrl", "source_text": "FIG. 7 represents the results obtained by flow cytometry for the HT29-ctrl (panel A), HT29-NRP-2 (panel B), Colo320^siRNA-ctrl (panel C) and Colo320^siRNA-NRP-2 (panel D) cells labelled with an anti-p53 antibody. The curves in black lines represent the results of the labelling with a control antibody, and the curves in grey lines represent the results of the labelling with the anti-p53 antibody. The number of events (the number of cells) is indicated on the y-axis, the fluorescence intensity (corresponding to the labelling of the cells with the anti-p53 antibody) is represented on the x-axis.\nThe protein extracts of the HT29-ctrl, HT29-NRP-2, Colo320^siRNA-ctrl and Colo320^siRNA-NRP-2 lines were also analysed by Western blotting using an anti-p53 antibody. After lysis of the cell lines, migration of the protein pellets obtained on a 10% polyacrylamide gel (10 μg of protein per well, standardized relative to the immunoblotting of actin), and then transfer onto a PVDF membrane, the PVDF membrane was incubated overnight with the p53 primary antibody (BD Biosciences, mouse anti-human p53) diluted to 1/500. The membranes, after washing in TBS/0.1% Tween20, were incubated for 1 hour with an anti-mouse HRP secondary antibody diluted to 1/12 500. The results are represented in FIG. 8."}, "[2]": {"system": "NRP-2 protein", "assay": "NRP-2 expression after siRNA transfection (flow cytometry, C9 antibody)", "conditions": "Colo320 cells transfected with pFiv H1/U6puro siRNA-NRP-2, from D7", "description": "The Colo320 line naturally expressing neuropilin-2 at its membrane surface was transfected with the plasmid pFiv H1/U6puro siRNA-NRP-2 using the Effectene® kit, Qiagen). In parallel, Colo320 cells were transfected with a control siRNA (siRNA-ctrl) provided with the pFiv H1/U6puro SiRNA expression vector kit (System Biosciences). The Colo320^siRNA-NRP-2 and Colo320^siRNA-ctrl transfected cells were then selected at D2 with 2 μg/ml of puromycin. The efficiency of the transfection was evaluated from D7 onwards by labelling with a murine anti-human NRP-2 IgG antibody (Clone C9, Santa Cruz Biotechnology) by flow cytometry: the results obtained are represented in FIG. 3.\nFor each of the panels of FIG. 3, the number of events (the number of cells) is indicated on the y-axis, the fluorescence intensity (corresponding to the label of the cells with the anti-NRP-2 antibody C9) is represented on the x-axis. The distribution curves in black lines represent the results obtained after labelling with a control antibody, the distribution curves in grey lines represent the results obtained after labelling with the C9 antibody."}, "[3]": {"system": "Colo320 cells", "assay": "MTT proliferation assay in the presence of siRNA-NRP-2", "conditions": "Colo320^siRNA-NRP-2 versus Colo320^siRNA-ctrl; 24, 48 and 72 hours", "description": "The MTT proliferation assay is based on the reduction of 3-(4,5-dimethylthiazol-2-yl)-2,5-diphenyltetrazolium bromide), by the mitochondrial succinate dehydrogenase of active live cells, to give formazan. The coloration intensity (OD) induced by this reaction is proportional to the number of live cells present during the assay, and to the metabolic activity thereof.\n4000 HT29ctrl, HT29-NRP-2, Colo320^siRNA-ctrl or Colo320^siRNA-NRP-2 cells were seeded into a 96-well Maxisorp plate, in 100 μl of DMEM medium containing 10% of inactivated FCS. The assay was carried out in triplicate. At 24, 48 and 72 hours, respectively, 10 μl of MTT at 5 mg/ml were added to each well. After 2 hours of incubation at 37° C., 5% CO2, 200 μl of DMSO were added to each well after shaking, and the OD was read at 570 nm using a spectrophotometer. The results of these experiments are represented in FIG. 4.\nFIGS. 4.A and 4.B are histograms representing the results obtained in the proliferation assay carried out respectively with the HT29ctrl and HT29-NRP-2 cells and with the Colo320^siRNA-ctrl and Colo320^siRNA-NRP-2 cells. The coloration intensity (the optical density “OD”) corresponding to the production of formazan by the cells is indicated on the y-axis, and the times at which the viability tests were carried out are indicated on the x-axis. […]"}}}
{"substance": "siRNA-NRP-2: double-stranded siRNA directed against the NRP-2 transcripts, sense SEQ ID No. 31, antisense SEQ ID No. 32, expressed from plasmid (sense GGCUGGAAGUCAGCACUAAUUU; antisense AUUAGUGCUGACUUCCAGCCUU)", "values": [{"measurement": "p53 expression (Western blotting)", "setting": "[1]", "value": "strongly expressed"}, {"measurement": "p53 expression (flow cytometry)", "setting": "[1]", "value": "restoration of p53 expression"}, {"measurement": "expression of the NRP-2 protein", "setting": "[2]", "value": "efficiently inhibited"}, {"measurement": "proliferation and survival (OD at 570 nm)", "setting": "[3]", "value": "OD decreases"}]}
